According to ChEMBL document CHEMBL1201862, “PubChem BioAssay data set” (2004):
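All cell lines were grown in 96-well plates and treated with compound for 48 hours. GI50: concentration for 50% inhibition of growth.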 Calls of active or inactive are those of the source. Rule as the data show it: active = GI50 up to about 1.1 µM and inactive = higher.

Legend:
Experiment in all cases: growth of human tumour cells (NCI), 48 h
786-0 = system: 786-0
A549 = system: A549
BT-549 = system: BT-549
COLO 205 = system: COLO 205
HL-60 = system: HL-60
M14 = system: M14
MDA-MB-435 = system: MDA-MB-435
MDA-N = system: MDA-N
NCI/ADR-RES = system: NCI/ADR-RES
OVCAR-5 = system: OVCAR-5
PC-3 = system: PC-3
SF-295 = system: SF-295
SF-539 = system: SF-539
SK-MEL-2 = system: SK-MEL-2
SK-OV-3 = system: SK-OV-3
SNB-19 = system: SNB-19
SNB-75 = system: SNB-75
U-251 = system: U-251
UACC-62 = system: UACC-62
UO-31 = system: UO-31

SMILES: Cc1ccc(S(=O)(=O)C2=Cc3ccccc3C2(O)c2ccccc2)cc1 (stereo not given)
- GI50 (786-0): > 10 µM (inactive)
- GI50 (A549): 32.2 µM (inactive)
- GI50 (BT-549): 24 µM (inactive)
- GI50 (COLO 205): 24.5 µM (inactive)
- GI50 (HL-60): 13.2 µM (inactive)
- GI50 (M14): 13.5 µM (inactive)
- GI50 (MDA-MB-435): 30.8 µM (inactive)
- GI50 (MDA-N): 18.7 µM (inactive)
- GI50 (NCI/ADR-RES): 25.5 µM (inactive)
- GI50 (OVCAR-5): 60.4 µM (inactive)
- GI50 (PC-3): 27.4 µM (inactive)
- GI50 (SF-295): 25.4 µM (inactive)
- GI50 (SF-539): 24 µM (inactive)
- GI50 (SK-MEL-2): 15.4 µM (inactive)
- GI50 (SK-OV-3): 29.3 µM (inactive)
- GI50 (SNB-19): 43.8 µM (inactive)
- GI50 (SNB-75): 31 µM (inactive)
- GI50 (U-251): 26.7 µM (inactive)

SMILES: CN(C)/C=C/c1nnc([N+](=O)[O-])s1
- GI50 (786-0): 11.3 µM (inactive)
- GI50 (A549): 19.9 µM (inactive)
- GI50 (BT-549): 17.9 µM (inactive)
- GI50 (COLO 205): 3.58 µM (inactive)
- GI50 (M14): 14.6 µM (inactive)
- GI50 (MDA-MB-435): 3.69 µM (inactive)
- GI50 (MDA-N): 4.28 µM (inactive)
- GI50 (NCI/ADR-RES): 16.5 µM (inactive)
- GI50 (PC-3): 4.95 µM (inactive)
- GI50 (SF-295): 13.8 µM (inactive)
- GI50 (SF-539): 8.79 µM (inactive)
- GI50 (SK-MEL-2): 17.2 µM (inactive)
- GI50 (SK-OV-3): 20.7 µM (inactive)
- GI50 (SNB-19): 26.3 µM (inactive)
- GI50 (SNB-75): 23.9 µM (inactive)
- GI50 (U-251): 17.7 µM (inactive)
- GI50 (UACC-62): 16.4 µM (inactive)
- GI50 (UO-31): 15.3 µM (inactive)

SMILES: CN(/N=C/c1ccc(OCc2cccc(COc3ccc(C=O)cc3)n2)cc1)c1cnn(-c2ccc(Cl)cc2Cl)c(=O)c1Cl
- GI50 (786-0): 81.8 µM (inactive)
- GI50 (A549): > 100 µM (inactive)
- GI50 (BT-549): 66.7 µM (inactive)
- GI50 (COLO 205): > 100 µM (inactive)
- GI50 (HL-60): > 100 µM (inactive)
- GI50 (M14): > 100 µM (inactive)
- GI50 (MDA-MB-435): > 100 µM (inactive)
- GI50 (MDA-N): > 100 µM (inactive)
- GI50 (NCI/ADR-RES): 21.2 µM (inactive)
- GI50 (OVCAR-5): > 100 µM (inactive)
- GI50 (PC-3): > 100 µM (inactive)
- GI50 (SF-295): 20.2 µM (inactive)
- GI50 (SF-539): 12.5 µM (inactive)
- GI50 (SK-MEL-2): 33 µM (inactive)
- GI50 (SNB-19): 50.7 µM (inactive)
- GI50 (SNB-75): 11.4 µM (inactive)
- GI50 (U-251): 26.9 µM (inactive)
- GI50 (UACC-62): > 100 µM (inactive)
- GI50 (UO-31): > 100 µM (inactive)

SMILES: C=C1C(C[C@@H]2O[C@H]3C[C@H]4O[C@@]5(C[C@@H]6O[C@]7(C[C@H](C)[C@@H]8O[C@@H]9CC(C(O)CO)O[C@@H]9C[C@@H]8O7)C[C@H](C)[C@@H]6O5)C[C@H]4O[C@H]3[C@H](C)[C@H]2O)O[C@@H](CC[C@@H]2O[C@@H](CC[C@@]34CC5O[C@H]6C(O[C@H]7CC[C@H](CC(=O)OC)O[C@@H]7[C@@H]6O3)[C@H]5O4)CC2=C)C[C@H]1C (stereo not given in full)
- GI50 (786-0): < 0.0001 µM (active)
- GI50 (A549): 0.000108 µM (active)
- GI50 (BT-549): < 0.0001 µM (active)
- GI50 (COLO 205): < 0.0001 µM (active)
- GI50 (HL-60): < 0.0001 µM (active)
- GI50 (M14): 0.000124 µM (active)
- GI50 (MDA-MB-435): < 0.0001 µM (active)
- GI50 (MDA-N): < 0.0001 µM (active)
- GI50 (NCI/ADR-RES): 0.00466 µM (active)
- GI50 (OVCAR-5): 0.00142 µM (active)
- GI50 (PC-3): < 0.0001 µM (active)
- GI50 (SF-295): < 0.0001 µM (active)
- GI50 (SK-OV-3): 0.000243 µM (active)
- GI50 (SNB-19): 0.000304 µM (active)
- GI50 (SNB-75): 0.000154 µM (active)
- GI50 (U-251): < 0.0001 µM (active)
- GI50 (UACC-62): < 0.0001 µM (active)
- GI50 (UO-31): 0.000904 µM (active)

SMILES: CC(=O)Nc1cc(Nc2cc(O)nc(O)n2)ccc1C
- GI50 (786-0): > 100 µM (inactive)
- GI50 (A549): > 100 µM (inactive)
- GI50 (BT-549): > 100 µM (inactive)
- GI50 (COLO 205): > 100 µM (inactive)
- GI50 (HL-60): > 100 µM (inactive)
- GI50 (M14): > 100 µM (inactive)
- GI50 (MDA-MB-435): > 100 µM (inactive)
- GI50 (MDA-N): > 100 µM (inactive)
- GI50 (NCI/ADR-RES): > 100 µM (inactive)
- GI50 (OVCAR-5): > 100 µM (inactive)
- GI50 (PC-3): > 100 µM (inactive)
- GI50 (SF-295): > 100 µM (inactive)
- GI50 (SF-539): > 100 µM (inactive)
- GI50 (SNB-19): > 100 µM (inactive)
- GI50 (SNB-75): > 100 µM (inactive)
- GI50 (U-251): > 100 µM (inactive)
- GI50 (UO-31): > 100 µM (inactive)

SMILES: Nc1ncnc2c1ccn2COC(CO)CO
- GI50 (786-0): > 100 µM (inactive)
- GI50 (A549): > 100 µM (inactive)
- GI50 (BT-549): > 100 µM (inactive)
- GI50 (HL-60): 90.6 µM (inactive)
- GI50 (M14): 79.6 µM (inactive)
- GI50 (MDA-MB-435): 62.8 µM (inactive)
- GI50 (MDA-N): > 100 µM (inactive)
- GI50 (NCI/ADR-RES): > 100 µM (inactive)
- GI50 (OVCAR-5): > 100 µM (inactive)
- GI50 (PC-3): > 100 µM (inactive)
- GI50 (SF-295): > 100 µM (inactive)
- GI50 (SF-539): > 100 µM (inactive)
- GI50 (SK-MEL-2): > 100 µM (inactive)
- GI50 (SK-OV-3): > 100 µM (inactive)
- GI50 (SNB-19): > 100 µM (inactive)
- GI50 (SNB-75): > 100 µM (inactive)
- GI50 (U-251): > 100 µM (inactive)
- GI50 (UACC-62): 37.4 µM (inactive)
- GI50 (UO-31): > 100 µM (inactive)

SMILES: O=C1Nc2ccc(Br)cc2/C1=N/NC(=S)Nc1ccc(F)cc1
- GI50 (786-0): 7.67 µM (inactive)
- GI50 (BT-549): 0.395 µM (active)
- GI50 (COLO 205): 4.02 µM (inactive)
- GI50 (HL-60): 1.6 µM (inactive)
- GI50 (MDA-MB-435): 2.4 µM (inactive)
- GI50 (MDA-N): 2.98 µM (inactive)
- GI50 (NCI/ADR-RES): 1.48 µM (inactive)
- GI50 (OVCAR-5): 43.2 µM (inactive)
- GI50 (PC-3): 5.27 µM (inactive)
- GI50 (SF-295): 3.69 µM (inactive)
- GI50 (SF-539): 9.91 µM (inactive)
- GI50 (SK-MEL-2): 10.9 µM (inactive)
- GI50 (SK-OV-3): 13.2 µM (inactive)
- GI50 (SNB-75): 11.1 µM (inactive)
- GI50 (U-251): 3.53 µM (inactive)
- GI50 (UACC-62): 2.56 µM (inactive)
